Laboratory results published in ChEMBL document CHEMBL5465560, “Selectivity Literature for EUbOPEN Chemogenomic Library” (2024).
One block for each molecule: values may come before it.

Tests used:
[1] = molecular target: T1, Serine/threonine-protein kinase DCLK2 (Homo sapiens) (UniProt Q8N568); conditions: at 10 µM
T1 sequence (whole entry): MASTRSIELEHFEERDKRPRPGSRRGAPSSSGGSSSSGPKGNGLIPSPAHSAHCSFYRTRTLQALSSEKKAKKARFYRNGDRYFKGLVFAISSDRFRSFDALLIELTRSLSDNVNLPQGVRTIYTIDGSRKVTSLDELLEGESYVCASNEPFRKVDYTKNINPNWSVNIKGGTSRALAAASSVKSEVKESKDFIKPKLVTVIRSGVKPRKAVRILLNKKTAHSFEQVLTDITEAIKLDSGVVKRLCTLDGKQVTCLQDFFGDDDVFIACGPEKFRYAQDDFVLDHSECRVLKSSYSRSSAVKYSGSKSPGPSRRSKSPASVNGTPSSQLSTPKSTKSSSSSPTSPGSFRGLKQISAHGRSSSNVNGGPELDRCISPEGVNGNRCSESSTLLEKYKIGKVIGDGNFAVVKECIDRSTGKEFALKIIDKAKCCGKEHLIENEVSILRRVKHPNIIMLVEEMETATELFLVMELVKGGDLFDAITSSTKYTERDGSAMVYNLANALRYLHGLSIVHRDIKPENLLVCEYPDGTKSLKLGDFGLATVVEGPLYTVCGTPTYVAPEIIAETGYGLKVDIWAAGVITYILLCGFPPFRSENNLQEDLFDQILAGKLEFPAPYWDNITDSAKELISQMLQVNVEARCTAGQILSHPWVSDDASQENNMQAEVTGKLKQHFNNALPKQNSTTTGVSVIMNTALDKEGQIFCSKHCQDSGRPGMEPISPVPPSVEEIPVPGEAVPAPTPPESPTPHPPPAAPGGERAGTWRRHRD

[2] = molecular target: Receptor-type tyrosine-protein kinase FLT3 (Homo sapiens) (UniProt P36888); test: Selectivity interaction (Kinase panel (Invitrogen)) EUB0000639a FLT3; conditions: at 200 nM
[3] = molecular target: T2, Phosphatidylinositol 4,5-bisphosphate 3-kinase catalytic subunit delta isoform (Homo sapiens) (UniProt O00329); test: Selectivity interaction (KinomeScan (DiscoverX)) EUB0000877a PIK3CD; conditions: at 10 µM
T2 sequence (whole entry): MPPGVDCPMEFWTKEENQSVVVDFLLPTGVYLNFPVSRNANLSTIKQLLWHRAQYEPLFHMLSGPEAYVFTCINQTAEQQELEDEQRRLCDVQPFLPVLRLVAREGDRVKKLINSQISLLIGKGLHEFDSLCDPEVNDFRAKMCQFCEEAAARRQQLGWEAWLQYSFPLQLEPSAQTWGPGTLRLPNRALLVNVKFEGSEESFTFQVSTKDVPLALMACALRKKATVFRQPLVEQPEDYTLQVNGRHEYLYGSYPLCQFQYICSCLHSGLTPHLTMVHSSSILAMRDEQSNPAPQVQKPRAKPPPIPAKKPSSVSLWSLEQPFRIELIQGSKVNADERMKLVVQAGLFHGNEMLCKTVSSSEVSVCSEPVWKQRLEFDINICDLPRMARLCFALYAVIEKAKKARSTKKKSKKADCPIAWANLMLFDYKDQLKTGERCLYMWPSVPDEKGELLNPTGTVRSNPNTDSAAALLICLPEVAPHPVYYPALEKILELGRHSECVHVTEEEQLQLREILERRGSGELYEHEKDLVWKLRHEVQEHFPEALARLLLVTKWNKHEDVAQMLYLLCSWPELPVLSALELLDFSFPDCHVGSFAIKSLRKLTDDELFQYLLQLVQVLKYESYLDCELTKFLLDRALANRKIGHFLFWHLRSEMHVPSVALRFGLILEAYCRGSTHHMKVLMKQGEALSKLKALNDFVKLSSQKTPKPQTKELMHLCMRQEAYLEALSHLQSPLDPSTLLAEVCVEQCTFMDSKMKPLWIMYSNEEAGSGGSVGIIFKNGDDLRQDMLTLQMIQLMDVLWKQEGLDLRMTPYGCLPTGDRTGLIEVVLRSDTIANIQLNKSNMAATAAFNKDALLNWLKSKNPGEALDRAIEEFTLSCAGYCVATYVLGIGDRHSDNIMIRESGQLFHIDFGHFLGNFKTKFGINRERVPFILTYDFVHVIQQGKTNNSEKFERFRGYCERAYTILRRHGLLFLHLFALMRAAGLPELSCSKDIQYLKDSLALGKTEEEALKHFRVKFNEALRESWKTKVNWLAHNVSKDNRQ

[4] = molecular target: TGF-beta receptor type-2 (Homo sapiens) (UniProt P37173); test: Selectivity interaction (ProQinase) EUB0000171b TGFBR2
[5] = molecular target: Casein kinase I isoform gamma-1 (Homo sapiens) (UniProt Q9HCP0); test: Selectivity interaction (KinomeScan (DiscoverX)) EUB0000092b CSNK1G1; conditions: at 10 µM
[6] = molecular target: T3, Phosphorylase b kinase gamma catalytic chain, liver/testis isoform (Homo sapiens) (UniProt P15735); test: Selectivity interaction (KinomeScan (DiscoverX)) EUB0000092b PHKG2; conditions: at 10 µM
T3 sequence (whole entry): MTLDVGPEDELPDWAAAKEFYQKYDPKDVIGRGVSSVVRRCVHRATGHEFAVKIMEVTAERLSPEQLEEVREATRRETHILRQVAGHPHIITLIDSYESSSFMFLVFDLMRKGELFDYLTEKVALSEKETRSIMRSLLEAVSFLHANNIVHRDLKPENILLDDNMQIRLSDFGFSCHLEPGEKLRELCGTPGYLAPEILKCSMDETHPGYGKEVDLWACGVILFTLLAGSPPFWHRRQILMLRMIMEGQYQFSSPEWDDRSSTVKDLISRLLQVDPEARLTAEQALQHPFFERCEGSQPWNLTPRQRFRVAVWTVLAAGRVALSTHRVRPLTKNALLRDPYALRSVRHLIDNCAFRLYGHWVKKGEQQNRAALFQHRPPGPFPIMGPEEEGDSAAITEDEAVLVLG

[7] = molecular target: Serine/threonine-protein kinase N2 (Homo sapiens, UniProt Q16513); test: Selectivity interaction (KinomeScan (DiscoverX)) EUB0000618a PKN2; conditions: at 10 µM
Chain of Serine/threonine-protein kinase N2 (Q16513 whole entry, looked up): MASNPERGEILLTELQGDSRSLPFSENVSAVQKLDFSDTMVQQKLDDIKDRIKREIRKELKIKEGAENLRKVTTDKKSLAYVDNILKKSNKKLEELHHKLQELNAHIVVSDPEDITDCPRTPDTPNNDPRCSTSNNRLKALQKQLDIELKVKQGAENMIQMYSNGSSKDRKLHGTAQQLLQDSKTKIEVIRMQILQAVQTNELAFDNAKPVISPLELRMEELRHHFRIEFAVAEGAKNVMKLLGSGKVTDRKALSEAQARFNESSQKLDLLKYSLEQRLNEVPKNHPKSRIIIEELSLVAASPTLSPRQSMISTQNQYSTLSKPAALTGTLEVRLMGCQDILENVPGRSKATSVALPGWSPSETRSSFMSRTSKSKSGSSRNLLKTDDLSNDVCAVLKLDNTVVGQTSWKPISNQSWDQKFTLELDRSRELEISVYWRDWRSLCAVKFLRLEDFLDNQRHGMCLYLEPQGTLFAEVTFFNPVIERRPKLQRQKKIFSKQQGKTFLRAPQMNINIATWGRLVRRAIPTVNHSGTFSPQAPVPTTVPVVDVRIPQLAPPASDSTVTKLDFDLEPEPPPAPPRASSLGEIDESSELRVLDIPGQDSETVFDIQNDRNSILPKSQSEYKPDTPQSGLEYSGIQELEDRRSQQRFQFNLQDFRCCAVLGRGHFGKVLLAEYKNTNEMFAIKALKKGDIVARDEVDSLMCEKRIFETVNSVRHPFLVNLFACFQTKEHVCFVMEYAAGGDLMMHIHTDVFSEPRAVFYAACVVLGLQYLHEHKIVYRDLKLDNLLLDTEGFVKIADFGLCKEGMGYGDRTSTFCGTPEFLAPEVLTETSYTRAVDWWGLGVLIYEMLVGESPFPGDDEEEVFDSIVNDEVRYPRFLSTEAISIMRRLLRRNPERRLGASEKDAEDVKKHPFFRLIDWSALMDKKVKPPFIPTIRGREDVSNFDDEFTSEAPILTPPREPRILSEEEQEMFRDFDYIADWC

Chain of TGF-beta receptor type-2 (Homo sapiens) (P37173 whole entry, canonical isoform): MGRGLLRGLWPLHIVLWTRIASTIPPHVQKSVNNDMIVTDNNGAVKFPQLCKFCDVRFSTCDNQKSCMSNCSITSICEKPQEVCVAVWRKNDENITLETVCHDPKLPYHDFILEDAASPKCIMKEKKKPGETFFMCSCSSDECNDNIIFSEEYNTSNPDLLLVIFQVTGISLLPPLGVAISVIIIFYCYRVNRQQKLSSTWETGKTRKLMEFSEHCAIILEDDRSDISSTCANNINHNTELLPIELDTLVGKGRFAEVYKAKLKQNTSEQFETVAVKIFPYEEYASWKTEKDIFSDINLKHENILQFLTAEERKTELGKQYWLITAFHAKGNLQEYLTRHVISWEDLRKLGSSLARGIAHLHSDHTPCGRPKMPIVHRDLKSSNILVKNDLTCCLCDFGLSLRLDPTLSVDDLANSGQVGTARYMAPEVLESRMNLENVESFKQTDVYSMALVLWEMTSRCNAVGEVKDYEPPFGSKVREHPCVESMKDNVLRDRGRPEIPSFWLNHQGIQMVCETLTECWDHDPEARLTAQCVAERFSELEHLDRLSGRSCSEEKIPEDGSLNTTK
Chain of Casein kinase I isoform gamma-1 (Homo sapiens) (Q9HCP0 whole entry, looked up, canonical isoform): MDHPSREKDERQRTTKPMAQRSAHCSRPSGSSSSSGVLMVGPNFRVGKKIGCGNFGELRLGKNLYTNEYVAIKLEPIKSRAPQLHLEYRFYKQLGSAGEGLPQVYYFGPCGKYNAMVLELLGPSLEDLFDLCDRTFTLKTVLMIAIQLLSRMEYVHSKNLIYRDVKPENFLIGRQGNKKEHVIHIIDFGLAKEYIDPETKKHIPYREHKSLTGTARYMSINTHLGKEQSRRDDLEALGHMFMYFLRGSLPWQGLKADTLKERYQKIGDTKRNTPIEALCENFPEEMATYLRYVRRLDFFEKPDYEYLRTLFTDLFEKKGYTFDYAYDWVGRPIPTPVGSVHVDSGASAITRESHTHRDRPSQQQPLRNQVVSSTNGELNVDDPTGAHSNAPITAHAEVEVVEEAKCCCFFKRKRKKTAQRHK
Chain of Receptor-type tyrosine-protein kinase FLT3 (Homo sapiens) (P36888 whole entry, canonical isoform): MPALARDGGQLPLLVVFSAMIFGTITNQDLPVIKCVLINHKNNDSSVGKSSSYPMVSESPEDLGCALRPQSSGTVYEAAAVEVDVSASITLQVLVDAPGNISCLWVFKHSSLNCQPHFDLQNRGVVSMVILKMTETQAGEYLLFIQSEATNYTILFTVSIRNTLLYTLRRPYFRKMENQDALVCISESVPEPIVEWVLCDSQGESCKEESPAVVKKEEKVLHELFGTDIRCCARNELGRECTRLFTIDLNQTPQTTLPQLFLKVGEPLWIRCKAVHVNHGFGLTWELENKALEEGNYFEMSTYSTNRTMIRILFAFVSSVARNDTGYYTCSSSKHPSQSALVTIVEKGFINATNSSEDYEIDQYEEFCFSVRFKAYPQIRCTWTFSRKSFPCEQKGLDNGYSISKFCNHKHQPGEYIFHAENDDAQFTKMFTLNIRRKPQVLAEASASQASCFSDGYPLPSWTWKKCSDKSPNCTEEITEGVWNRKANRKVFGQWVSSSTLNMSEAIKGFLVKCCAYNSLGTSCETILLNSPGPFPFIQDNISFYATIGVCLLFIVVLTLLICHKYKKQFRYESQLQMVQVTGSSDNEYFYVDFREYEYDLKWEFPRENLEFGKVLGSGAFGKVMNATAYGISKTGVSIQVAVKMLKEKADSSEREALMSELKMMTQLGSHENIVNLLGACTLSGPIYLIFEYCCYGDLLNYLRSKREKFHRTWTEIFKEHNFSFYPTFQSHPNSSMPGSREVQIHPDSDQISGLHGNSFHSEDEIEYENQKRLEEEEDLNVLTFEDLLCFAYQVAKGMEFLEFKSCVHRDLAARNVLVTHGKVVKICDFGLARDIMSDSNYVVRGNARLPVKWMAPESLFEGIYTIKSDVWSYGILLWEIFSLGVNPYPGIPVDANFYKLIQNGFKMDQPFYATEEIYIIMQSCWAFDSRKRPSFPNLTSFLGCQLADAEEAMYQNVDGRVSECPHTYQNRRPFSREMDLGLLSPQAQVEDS

Structure (SMILES): Cc1cc([C@@H](C)Nc2ccccc2C(=O)O)c2nc(N3CCOCC3)cc(=O)n2c1 [AZD-6482]
- % of control [1]: 100%

- % of inhibition [2]: 29.4%
Structure (SMILES): CC[C@@H]1[C@H](F)C(=O)N[C@@H]1COc1nccc2cc(C(N)=O)c(OC)cc12 [ZIMLOVISERTIB]

- % of inhibition [3]: 100%
Structure (SMILES): CCC(=O)N1CC[C@H](Nc2ncnc3c2CN(c2cnc(OC)c(C(F)(F)F)c2)CC3)C1 [LENIOLISIB]

- % of control ([4]; at 1 µM): 53%
- % of control ([4]; at 5 µM): 4%
Structure (SMILES): C=CC(=O)Nc1cccc(C(=O)Nc2ccc(Nc3cc(-c4[nH]c(SC)nc4C)ccn3)cc2)c1

Structure (SMILES): CCC(=O)N1CCN(c2ccc(-n3c(=O)ccc4cnc5ccc(-c6cnc7ccccc7c6)cc5c43)cc2C(F)(F)F)CC1
- % of control [5]: 100%
- % of control [6]: 100%

Structure (SMILES): O[C@H]1CC[C@H](Nc2ncc3nc(Nc4c(F)cc(F)cc4F)n([C@H]4CCOC4)c3n2)CC1
- % of control [7]: 97%
